# Assay results reported in US6083920A, “Compositions for modulating intracellular inositol trisphosphate concentration” (priority 1996, dated 2000).
# Entries after “also recorded” stand apart in the source; their conditions may differ.
# Assays:
# [1] = Lysosphingolipid loading of isolated neuronal plasma membrane; format: in vitro ADME, chick; settings: Plasma Membrane Suspension, 10 μmolar exposure
# Description: Total lipids were removed from the neuron samples by repeated extraction with chloroforn:methanol (2:1, vol:vol). […] The recovered lysosphingolipids were stably tagged with NBDZF by the rapid procedure of Nozowa et al. (supra). The fluorescence tagged neuronal lysosphingolipids were separated in parallel with reference standards NBDZF-Sph, NBDZF-Psy, and NBDZF-Lsm on high performance silica gel thin layer chromatography plates with acetonitrile:H2 O (10:0.5, vol:vol). The highly fluorescent, well separated bands were scraped from the plate. The fluorescence tagged lysosphingolipids are eluted from the scraped silica gel with methanol:1 N HCl (1:0.02, vol:vol). The fluorescence tagged lysosphingolipid eluates were quantitated against reference standards by fluorescence measurement in a Perkin-Elmer LS-5 Fluorescence Spectrometer.
# Physiologically active phospholipase C is present on the endofacial portion of the plasma membrane. A procedure for examining its activity in an intact membrane is provided. […] One hundred Petri dishes of cultured cortical neurons were incubated overnight with 50 μCi [^3 H]myo-inositol per mL of culture medium. […] The collected neurons were homogenized in 5 mL 0.32 M sucrose and centrifuged at 1000×g for 15 minutes. The supernatant was layered on top of 2 ml 1.2 M sucrose and centrifuged at 300,000×g for 20 minutes. The sedimented pellet was resuspended by sonication for 10 seconds in 50 mM Tris buffer (pH 7.4), containing 0.3 μM CaCl2, 1 mM MgCl2, and 0.01% ascorbic acid.
# The suspended plasma membrane preparation was apportioned into 250 μl samples, each providing approximately 100 μg membrane protein. Sphingosine, psychosine, and lysosphingomyelin were added to each plasma membrane sample. […] Samples were analyzed for lysosphingolipid loading (i.e., membrane lysosphingolipid content following exposure to exogenous sphingolipid) by fluorescence tagging. […] Values are reported in pmoles lysosphingolipid/mg plasma membrane protein.
# [2] = tested on: metabotropic glutamate receptor; experiment: Behavioral analysis after ICV infusion (quisqualate excitotoxicity); format: in vivo, male F344 rats
# Experimental: The animals used in this experiment were male F344 rats (Charles River Breeding Laboratories). The animals were housed individually, exposed to a 12-hour light-dark cycle, and allowed free access to food and water. The animals weighed approximately 250 g at the beginning of each experiment and were weighed daily. In addition, the animals were habituated to handling before each experiment.
# Before administering various compounds, the animals were anesthetized with sodium pentobarbital (50 mg/kg, i.p.) and positioned in a sterotaxic instrument. A 26 gauge cannula was inserted into the cerebral ventricle at the following co-ordinates: 1.0 mm posterior to bregma, 1.5 mm lateral to the midline, and 4.0 mm below the dorsal surface of the neocortex. Cannulas were capped and fixed in place with dental cement. One week after cannulation, 10 μl of each of the treatment drugs was infused, ICV (i.e. into the ventricals of the brain), via a micropump at a rate of 10 μl/min. For this procedure, the animals were lightly restrained and unanesthetized. Following administration of the compound, the infusion cannula remained in position for one minute, after which the permanent in situ cannula was capped.
# The compounds administered were obtained from a commercial supplier (Sigma Chemical Co., St. Louis, Mo.) and dissolved in saline prior to injection. […]
# Pilot studies identified several specific behavioral measures that could be used to indicate excessive activation of the metabotropic receptor (see Table 3). […] The experiments that follow were based on an analysis of these behaviors over a two hour period after administration of the compounds of the invention. Behavioral observation was carried out by two trained observers, who worked independently of one another and who were blind to the experimental groups. […] Frequency and duration means were computed by subtracting pre-infusion means from post-infusion means.
# Some of the experiments that were performed first were carried out to determine the amount of quisqualate required to produce behavioral and histological changes and the amount of lysosphingolipids that could effectively prevent or reverse these effects. Table 3 outlines the behavioral responses of rats to various doses of quisqualate (injected as described above) and the associated histological changes. The behaviors are listed as they occur chronologically. The limb clasp and reflex tests indicate the degree of decortication. A limb clasp or placement score of zero is normal, and a score of 3 is severely abnormal.
# The data shown in Table 4 represents the observations of pilot studies aimed at determining the effect (on behavior) of lysosphingolipids infused directly into the lateral ventricles of the brain 30 minutes prior to infusion of quisqualate.
# The experiment began one week after ICV cannulation. Animals (n=6 per group) were randomly allocated to one of 8 treatment groups: (1) saline, (2) quisqualate at 225 nmoles, (3) psychosine at 125 nmoles, (4) lysosphingomyelin at 125 nmoles, (5) lysosphingomyelin at 150 nmoles, (6) quisqualate at 225 nmoles and psychosine at 125 nmoles, (7) quisqualate at 225 nmoles and lysosphingomyelin at 125 nmoles, and (8) quisqualate at 225 nmoles and lysosphingomyelin at 150 nmoles. Following the baseline observation period, animals received the first of two ICV infusions (all infusions were of a 10 μl volume that was administered over a 1 minute period). For the first five groups listed above, this consisted of saline (10 μl/minute), for the following 3 groups the infusions were psychosine at 125 nmoles, lysosphingomyelin at 125 nmoles, or Iysosphingomyelin at 150 nmoles, respectively. Thirty minutes later, all animals received the second infusion which, for the first five groups listed above, consisted of saline, quisqualate at 225 nmoles, psychosine at 125 nmoles, lysosphingomyelin at 125 mrnoles, and lysosphingomyelin at 150 nmoles respectively. […]
# [3] = tested on: phospholipase C isoforms beta, delta, and gamma
# Experimental: The effects of sphingosine, lysocerebroside, and lysosphingomyelin on the kinetics of pure, immunologically isolated phospholipase C isoforms beta, delta, and gamma (which are commercially available) was examined. For each isoform, 10 μM sphingosine was added to a reaction medium consisting of 1 μg phospholipase C isoform/ml, Tris-malate buffer (50 mM, pH 7.0) containing 100 μM phosphatidyl inositol bis-phosphate tri-ammonium salt, 0.01 μCi tritium labeled phosphatidyl inositol bis-phosphate, 100 mM NaCl, 10 mM CaCl2, and 5 mM 2-merceptoethanol.
# [4] = 10 μM lysocerebroside or 5 μM lysosphingomyelin
smiles,measurement,setting,value
"CCCCCCCCCCCCC/C=C/[C@@H](O)[C@@H](N)CO[C@@H]1O[C@H](CO)[C@H](O)[C@H](O)[C@H]1O [psychosine, lysocerebroside]","membrane lysosphingolipid content, 0 hours of incubation",[1]; 0 h,45 ± 5 pmoles lysosphingolipid/mg pla
same,"membrane lysosphingolipid content, 0.5 hours of incubation",[1]; 0.5 h,75 ± 20 pmoles lysosphingolipid/mg pla
same,"membrane lysosphingolipid content, 1.0 hours of incubation",[1]; 1.0 h,120 ± 15 pmoles lysosphingolipid/mg pla
same,"membrane lysosphingolipid content, 2.0 hours of incubation",[1]; 2.0 h,180 ± 15 pmoles lysosphingolipid/mg pla
same,"membrane lysosphingolipid content, 3.0 hours of incubation",[1]; 3.0 h,175 ± 20 pmoles lysosphingolipid/mg pla
same,"convulsant behavior, compound alone","[2]; 125 nmoles ICV, no quisqualate",displayed no convulsant behavior
same,effective dose,"[2]; ICV, rat, pilot testing",125 nmol
same,BEHAVIORAL RESPONSE,[2]; Psychosine 25 nmoles ICV 30 minutes prior to Quisqualate 200 nmoles,"Moderate convulsions, teeth chattering; also recorded: akinesia and hyperactivity"
same,BEHAVIORAL RESPONSE,[2]; Psychosine 50 nmoles ICV 30 minutes prior to Quisqualate 200 nmoles,"Moderate convulsions, teeth chattering; also recorded: akinesia and hyperactivity"
same,BEHAVIORAL RESPONSE,[2]; Psychosine 100 nmoles ICV 30 minutes prior to Quisqualate 200 nmoles,Almost complete attenuation of Quisqualate; also recorded: some teeth chattering post-injection
same,BEHAVIORAL RESPONSE,[2]; Psychosine 100 nmoles ICV 30 minutes prior to Quisqualate 250 nmoles,"Moderate convulsions, teeth chattering; also recorded: akinesia. Quisqualate markedly reduced"
same,BEHAVIORAL RESPONSE,[2]; Psychosine 125 nmoles ICV 30 minutes prior to Quisqualate 200 nmoles,Complete attenuation of Quisqualate response
same,BEHAVIORAL RESPONSE,[2]; Psychosine 125 nmoles ICV 30 minutes prior to Quisqualate 225 nmoles,Complete attenuation of Quisqualate response
same,BEHAVIORAL RESPONSE,[2]; Psychosine 150 nmoles ICV 30 minutes prior to Quisqualate 250 nmoles,Almost complete attenuation of Quisqualate
same,sedation produced by the lysosphingolipid,"[2]; Psychosine 150 nmoles ICV, short term",sedation at this dose
same,behavioral or neurotoxic effects of the compound itself,[2]; doses as high as 125 nmoles per animal ICV,no behavioral or neurotoxic effects were observed
same,behavioral and histological changes caused by quisqualate,"[2]; pretreated with 125 nmoles ICV, rat",absent
same,number of convulsions or spasms,"[2]; pretreatment 125 nmoles ICV 30 minutes before quisqualate 225 nmoles, n=6",significantly (p<01) attenuated
same,diminution in Vmax,[3]; [4],60%±10%
same,increase in calcium ion concentration required for optimal activity,[3]; [4],5 fold
same,effect on KM for substrate phosphatidylinositol bis-phosphate,"[3]; 10 μM sphingosine, 10 μM lysocerebroside, 5 μM lysosphingomyelin",no change
